Test results as given in US20230104936A1, “TRPML MODULATORS” (Casma Therapeutics, Inc., priority 2019, published 2023).

System: TFEB
Experiment: TFEB nuclear translocation assay, HeLa wt cells
Format: cell-based
Details: 2 hrs compound treatment, Table 1 does not say HeLa wt or TRPML1 KO
Method in brief: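 HeLa wt or TRPML1 KO cells treated 2 hrs with compounds at 37° C, fixed in 4% PFA, immunostained with anti-TFEB plus Alexa 488 secondary and Hoechst. Imaged at ×20, four fields/well; read-out is nuclear/perinuclear-ring TFEB intensity ratio, reported as AC50.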

| SMILES | AC50 (Homo sapiens, HeLa, 2 h) | AC50 |
| --- | --- | --- |
| O=S(=O)(Nc1ccccc1N1CCC(c2ccc(Cl)cc2F)CC1)c1ccc(Cl)cc1 [Compound A-73, 4-chloro-N-{2-[4-(4-chloro-2-fluorophenyl)piperidin-1-yl]phenyl}benzene-1-sulfonamide] | ≤ 2000 nM |  |
| CN(C)S(=O)(=O)c1ccc(S(=O)(=O)Nc2cccc(F)c2N2CCC(CN3CCCC(F)(F)C3)CC2)cc1 [Compound A-773, N4-(2-{4-[(3,3-difluoropiperidin-1-yl)methyl]piperidin-1-yl}-3-fluorophenyl)-N1,N1-dimethylbenzene-1,4-disulfonamide] | ≤ 2000 nM |  |
| C[C@@H]1CN(CC2CCN(c3c(F)cccc3[C@@H](C)S(=O)(=O)c3ccc(S(=N)(=O)N(C)C)cc3)CC2)C[C@H](C)O1 (single isomer, unassigned) [Compound A-903] |  | ≥ 10000 nM |
| C#Cc1ccc(NS(=O)(=O)c2ccc(S(=O)(=O)N(C)C)cc2)c(N2CCCCC2)c1 [Compound A-812, N4-[4-ethynyl-2-(piperidin-1-yl)phenyl]-N1,N1-dimethylbenzene-1,4-disulfonamide] | ≤ 2000 nM |  |
| CN(C)S(=O)(=O)c1ccc(S(=O)(=O)Nc2ccccc2N2CCC(C#N)(c3ccc(F)cc3F)CC2)cc1 [Compound A-175, N4-{2-[4-cyano-4-(2,4-difluorophenyl)piperidin-1-yl]phenyl}-N1,N1-dimethylbenzene-1,4-disulfonamide] | ≤ 2000 nM |  |
| O=S(=O)(Nc1ccccc1N1CCN(c2ncc(Cl)cc2F)CC1)c1ccc(S(=O)(=O)C(F)(F)F)cc1 [Compound A-178, N-{2-[4-(5-chloro-3-fluoropyridin-2-yl)piperazin-1-yl]phenyl}-4-trifluoromethanesulfonylbenzene-1-sulfonamide] | ≤ 2000 nM |  |
| Cc1ccc(S(=O)(=O)N(C)c2ccccc2N2CCC(c3ccc(Cl)cc3F)CC2)cc1 [Compound A-107, N-{2-[4-(4-chloro-2-fluorophenyl)piperidin-1-yl]phenyl}-N,4-dimethylbenzene-1-sulfonamide] | ≥ 10000 nM |  |
| COCC1(C)CCN(c2ccccc2NS(=O)(=O)c2ccc(C(C)C)cc2)CC1 [Compound A-706, N-{2-[4-(methoxymethyl)-4-methylpiperidin-1-yl]phenyl}-4-(propan-2-yl)benzene-1-sulfonamide] | ≤ 2000 nM |  |
| CN(C)S(=O)(=O)c1ccc(S(=O)(=O)Nc2nn(C)cc2C2CCN(c3ccc(Cl)cc3F)CC2)cc1 [Compound A-55, N1-(4-(1-(4-chloro-2-fluorophenyl)piperidin-4-yl)-1-methyl-1H-pyrazol-3-yl)-N4,N4-dimethylbenzene-1,4-disulfonamide] | ≤ 2000 nM |  |
| Cc1ccc(NS(=O)(=O)c2ccccc2N2CCC(c3ccc(Cl)cc3F)CC2)cc1 [Compound A-111, 2-(4-(4-chloro-2-fluorophenyl)piperidin-1-yl)-N-(p-tolyl)benzenesulfonamide] | ≥ 10000 nM |  |
| CN(C)S(=O)(=O)c1ccc(S(=O)(=O)Nc2ccccc2N2CCC(C)(c3ccc(Cl)cc3)CC2)cc1 [Compound A-184, N4-{2-[4-(4-chlorophenyl)-4-methylpiperidin-1-yl]phenyl}-N1,N1-dimethylbenzene-1,4-disulfonamide] | ≤ 2000 nM |  |
| CN(C)S(=O)(=O)c1ccc(S(=O)(=O)Nc2ccccc2N2CC3(CN(c4ccc(Cl)cc4F)C3)C2)cc1 [Compound A-296, N1-(2-(6-(4-chloro-2-fluorophenyl)-2,6-diazaspiro[3.3]heptan-2-yl)phenyl)-N4,N4-dimethylbenzene-1,4-disulfonamide] | 2010 to 8000 nM |  |
| CN1CC2(CCC(c3ccccc3NS(=O)(=O)c3ccc(S(=O)(=O)N(C)C)cc3)CC2)c2ccc(F)cc21 (centres unmarked) [Compound A-305, N1-(2-(6′-fluoro-1′-methylspiro[cyclohexane-1,3′-indolin]-4-yl)phenyl)-N4,N4-dimethylbenzene-1,4-disulfonamide] | 2010 to 8000 nM |  |
| O=S(=O)(Nc1ccccc1N1CCCC1)c1ccc2c(c1)OCCCO2 [Compound A-372, N-[2-(pyrrolidin-1-yl)phenyl]-3,4-dihydro-2H-1,5-benzodioxepine-7-sulfonamide] | 2010 to 8000 nM |  |
